Columns and labels:
[1] = target: IDO1 protein levels in BxPC3 cells (Homo sapiens, UniProt P14902); experiment: IDO1 immunoblotting (degradation); type: cell-based; set-up: endogenous in cells; host or cells: BxPC3 (DSMZ), IFN-γ stimulated; conditions: BxPC3 cells, IFN-γ 24 h, washout, compounds 24 h
[2] = target: T1, heme-bound IDO1 (holo-IDO1) (Homo sapiens, UniProt P14902); experiment: UV/Vis detection of heme-bound IDO1 (heme displacement); type: binding; conditions: 50 µM, 37 °C, 3 h, Soret band 404 nm
T1 construct: The GST-tag of IDO1 was removed to obtain untagged full-length IDO1l using PreScission protease; GST (N, cleaved yes); made in house; own inference
T1 sequence (P14902 whole entry): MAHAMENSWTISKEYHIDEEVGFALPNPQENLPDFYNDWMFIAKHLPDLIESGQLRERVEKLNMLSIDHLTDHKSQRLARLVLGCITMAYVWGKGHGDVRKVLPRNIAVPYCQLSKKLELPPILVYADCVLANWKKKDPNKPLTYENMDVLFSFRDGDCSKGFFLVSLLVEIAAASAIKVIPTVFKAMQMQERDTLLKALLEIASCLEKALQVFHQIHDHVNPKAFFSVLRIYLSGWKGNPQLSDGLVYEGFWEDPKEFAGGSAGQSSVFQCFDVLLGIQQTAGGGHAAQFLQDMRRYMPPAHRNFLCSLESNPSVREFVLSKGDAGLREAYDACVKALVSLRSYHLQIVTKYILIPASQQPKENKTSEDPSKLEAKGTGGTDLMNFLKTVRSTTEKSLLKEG
Method: (§1) Incubation at 37 °C for 3 h. Representative data for n = 3. c) Time‐course of heme displacement from IDO1 detected by the absorbance at the Soret peak (404 nm) as a function of time. […] All curves were fit using a one‐site model with N = 1 and defined IDO1 concentration. Left plots show baseline corrected data, while right plots show integrated binding isotherms versus iDegs/IDO1 ratio. IDO1 protein (125 µM) was titrated into the stirred sample cell containing iDegs (25 µM, except for iDeg‐8 at 50 µM). Representative data for n = 3, except for iDeg‐9 (n = 2). g)–i) In vivo activity of iDeg‐6. NSG immunodeficient mice were injected with SKOV‐3 cells. Mice were treated with 18 intraperitoneal injections of iDeg‐6 (30 mg kg^−1) or vehicle. The pharmacological treatment was twice daily. Tumor volume was determined weekly by digital caliper. g) SKOV‐3 tumor growth curves in iDeg‐6‐treated mice (n = 12, green lines) or vehicle‐treated mice (n = 13, gray lines). Statistical analysis was performed by two‐way ANOVA: ****p < 0.001. h) Body weight changes during treatment window (mean values ± range). i) Survival data are shown by Kaplan‐Meier survival analysis. Mantel–Haenszel statistical analysis: p < 0.0001).
Representative data of n=3 biological replicates. c, IDO1 was incubated with compounds (50 µM) or DMSO (control). UV/VIS spectra were acquired at five time points to monitor heme loss over time. Data are representative of two replicates.
The test compounds or DMSO (vehicle control) were incubated with recombinant full-length human IDO1 (rhIDO1; 10 µM) in 50 mM potassium phosphate buffer (pH 6.5) for 3 h at 37 °C. Following incubation, samples were centrifuged at 5,000 × g for 10 minutes. UV/Vis absorption spectra were then recorded from 250 nm to 650 nm in 1 nm increments using UV-transparent microplates (UV-STAR®, Greiner Bio-One, Austria) on a Spark® multimode microplate reader (Tecan, Austria). Absorbance values were analyzed at 404 nm (A404), and were plotted using GraphPad Prism version 9.0 (GraphPad Software, USA).

[3] = target: T2, recombinant full-length human IDO1 (Homo sapiens, UniProt P14902); experiment: Thermal shift assay (nanoDSF); type: binding; conditions: 50 µM, 3 h at 37 °C
T2 construct: The GST-tag of IDO1 was removed to obtain untagged full-length IDO1l using PreScission protease; GST (N, cleaved yes); made in house; own inference
T2 sequence (P14902 whole entry): as above
Method: as §1, with “0.0001). […]” for “0.0001).”
The test compounds or DMSO (vehicle control) were incubated with recombinant full-length human IDO1 (rhIDO1; 10 µM) in 50 mM potassium phosphate buffer (pH 6.5) for 3 h at 37 °C. Following incubation, samples were centrifuged at 5,000 × g for 10 minutes, then the protein-compound solutions were loaded into capillaries, and thermal unfolding was assessed using the Prometheus Panta system (NanoTemper® Technologies, Germany). Fluorescence intensities at 330 nm and 350 nm were recorded at temperature increments of 0.115 °C from 20 °C to 90 °C. Melting temperatures (Tm) were automatically calculated using Prometheus NT.48 analysis software. The resulting thermal denaturation curves, with Tm defined as the temperature at the maximum derivative of the unfolding transition, were visualized and analysed using GraphPad Prism version 9.0 (GraphPad Software, USA).

[4] = tested on: Kyn levels in BxPC3 cells (kynurenine generated by IDO1); experiment: Cellular Kyn assay (automated Kyn screening assay); type: cell-based; conditions: IFN-γ, L-Trp and compounds 48 h, mean ± SD, read-out: IC50 (Kyn assay), reduction of kynurenine levels
recombinant human IDO1 = target: T3, recombinant human IDO1 (Homo sapiens, UniProt P14902); experiment: IDO1 enzymatic assay in vitro; type: biochemical
T3 construct: The GST-tag of IDO1 was removed to obtain untagged full-length IDO1l using PreScission protease; GST (N, cleaved yes); made in house; own inference
T3 sequence (P14902 whole entry): as above

[5] = target: T4, IDO1 protein in IFN-γ stimulated HeLa cells (Homo sapiens, UniProt P14902); experiment: IDO1 immunostaining (immunofluorescence); type: cell-based; conditions: 24 h
T4 construct: endogenous in cells; host or cells: HeLa (DSMZ), IFN-γ stimulated
T4 sequence (P14902 whole entry): as above
Method: Figure 3 Comparison of IDO1 degradation efficiency for selected compounds. a) Detection of IDO1 levels using immunostaining. IFN‐γ stimulated HeLa cells were treated with the compounds for 24 h. IDO1 protein abundance was detected with IDO1 antibody. Data are mean values ± SD, n = 3. b) IDO1 protein levels in BxPC3 cells upon compounds treatment were detected using immunoblotting. BxPC3 cells were treated with IFN‐γ for 24 h prior to washout, followed by addition of compounds. Representative blot and quantified band intensities are shown (mean values ± SD, n = 3). See Figure S11a S12a for the uncropped blots. c) Key functions of hit compounds that influence degradation efficiency. d) Heatmap for IDO degradation efficiency. IDO1 levels were monitored as described in (c). See Table S1 for mean values and Figure S11b for the uncropped blots. e)–g) Dose dependent degradation of IDO1 protein in BxPC3 cells treated with iDeg‐7–9 and detected as described in (c). Representative data of n = 3 except for iDeg‐9 (n = 4). See Figure S12 S13 for the uncropped blots. h) Quantification of IDO1 protein levels from e‐g (mean values ± SD, n = 3 except for iDeg‐9 (n = 4). i) Tabulated inhibition and degradation ability of iDeg‐6–9. ND: not detected. j) Volcano plot of iDeg‐6‐induced changes on the global proteome. SKOV‐3 cells were treated with 10 µM iDeg‐6 or DMSO for 4 h followed by protein extraction, tryptic digest and LC‐MS/MS analysis (n = 4). Plot generated using UMSAP (T 0 = 0.5, S 0 = 0.5).
IFN-γ-stimulated Hela cells (5 ng/mL IFN-γ) were seeded in 96-well plates and incubated for 24 h. Subsequently, IFN-γ was washed out and cells were treated with compounds for additional 24 h. Cells were then washed once with PBS and fixed with 3.7% paraformaldehyde for 10 min at room temperature. Cells were washed three times with ice-cold PBS. […] Images were analyzed by SpectraMax Paradigm microplate reader (Molecular Devices) to extract IDO1 fluorescence intensity as well as the cell count. IDO1 fluorescence intensity was normalized to cell count. […]

Chain of IDO1 protein levels in BxPC3 cells (P14902 whole entry): as above

**Q.** `CC(C)(C)c1ccc(S(=O)(=O)N2CC[C@@]3(C2)[C@@H]2C[C@H](C[C@H]3OC(=O)Nc3ccc(I)cc3)C2(C)C)cc1` [compound 22, (1R,2S,3R,5R)-1'-((4-(tert-butyl)phenyl)sulfonyl)-6,6-dimethylspiro[bicyclo[3.1.1]heptane-2,3'-pyrrolidin]-3-yl (4-iodophenyl)carbamate] was tested. Which “IDO1 protein level by immunoblotting (in words)” value [1] did it give?
**A.** did not reduce the IDO1 protein level

**Q.** And the “heme displacement from holo-IDO1 (in words)” value [2]?
**A.** displaced heme to a similar extent

**Q.** What about the “shift in IDO1 melting temperature ΔTm / binding in TSA (in words)” value [3] of the same molecule?
**A.** identical binding in the TSA assay

**Q.** What about the IC50 [4] of the same molecule?
**A.** 490 ± 60 nM

**Q.** What about the “IDO1 activity Inhibition (%)” value (recombinant human IDO1; at 14 µM, pre-incubation 37 °C 45 min, mean ± SD) of the same molecule?
**A.** ns (not significant)

**Q.** And the “IDO1 activity IC50 [µM] (in vitro assay)” value (recombinant human IDO1; pre-incubation 37 °C 45 min, determined if inhibition at 14 µM higher than 50%)?
**A.** – (Inactive: >75% Kyn level observed up to a concentration of 14 µM and no IC50 value obtained)

**Q.** What about the “in vitro IDO1 inhibition (in words)” value (recombinant human IDO1; up to 14 µM, incubated with IDO1 for 45 min) of the same molecule?
**A.** no activity

**Q.** And the “IDO1 staining fluorescence intensity (in words)” value [5]?
**A.** did not induce IDO1 protein degradation

Reference: paper PMC12811658, “Design, Synthesis, and Structural Evolution of Pseudo‐Natural Product IDO1 Inhibitors and Degraders” (Angewandte Chemie (International Ed. in English), 2025)
